“Also recorded” adds a separate entry of the source. Structures can show the parent of a compound that is named as a salt. Where two headings read alike, the source gives them in different places. Where no end group is shown, it is not given here. [ ]: non-standard residue; d: D form. Lys(Me2) = CN(C)CCCC[C@H](N)C(=O)O
Tests used:
human recombinant LSD1 [1] = assay type: biochemical
Caco-2 cells [2] = system: Caco-2 cells
[3] = system: SARS-CoV-2-infected Caco-2 cells; assay type: cell-based, human
SARS-CoV-2 [4] = assay type: cell-based
[5] = system: SARS-CoV-2 spike protein at Caco-2 cell surface; assay type: cell-based
[6] = system: ACE2-IMPα3 colocalization, SARS-CoV-2-infected Caco-2 cells; assay type: cell-based, human
[7] = system: SARS-CoV-2-infected Caco-2 cells; assay type: cell-based, human / SARS-CoV-2
[8] = system: ACE2-SARS-CoV-2 spike protein interaction, Caco-2 cells; assay type: cell-based, human / SARS-CoV-2
LSD1 = conditions: cited from earlier work
Caco-2 cells [9] = system: Caco-2 cells; remark: listed apart in the source
[10] = system: SARS-CoV-2-infected Caco-2 cells; assay type: cell-based, human; remark: listed apart in the source
[11] = system: ACE2 (pan-methylation lysine), Caco-2 cells; assay type: cell-based, human
SARS-CoV-2 [12] = assay type: cell-based; remark: listed apart in the source
[13] = system: SARS-CoV-2-S-driven entry, Caco-2 cells; conditions: cited from earlier work
COVID-19 = conditions: cited from earlier work
[14] = system: nuclear LSD1/CoREST complex; conditions: cited from earlier work
[15] = system: T cells in human breast cancer; conditions: cited from earlier work
human recombinant LSD1 [16] = experiment: LSD1 demethylation assay with di-methylated ACE2 peptides as substrates; assay type: biochemical; conditions: for Demethylation of NLS peptides by LSD1 (rank order): LSD1 fluorimetric kit, background subtracted, one-way ANOVA P < 0.0001 (Fig. 4d)
ACE2, Caco-2 cells = assay type: cell-based, human; conditions: Caco-2, FAM5-tagged NACE2i, single treatment, after 8 h and up to 96 h; P < 0.0001 (Fig. 5b)
Caco-2 cells [17] = assay type: physicochemical, human; conditions: FAM5-tagged peptide, single treatment, Caco-2 culture, over 96 h, fluorescence imaging
SARS-CoV-2 [18] = conditions: cited from earlier work

In the case of `N[C@@H]1C[C@H]1c1ccccc1` (racemic) [tranylcypromine], the “ACE2 lysine 31 (ACE2me2 peptide) demethylation” value (human recombinant LSD1 [1]) is reported as “significantly decreased ACE2 lysine 31 demethylation”.

For `O=C(O)c1ccc(CN2CCC(CN[C@@H]3C[C@H]3c3ccccc3)CC2)cc1` [GSK, GSK2879552], the cell proliferation (Caco-2 cells [2]) was “neither altered cell proliferation”, the “ACE2 lysine 31 (ACE2me2 peptide) demethylation” value (human recombinant LSD1 [1]) was “further decreases were observed” and the “enriched Reactome pathways vs control” value [3] was “downregulated genes enriched in the IFN pathway”. The “number of differentially expressed genes vs control” value [3] was 73 DEGs, the “viral RNA levels in culture supernatants” value (SARS-CoV-2 [4]) was “negligibly reduced viral RNA levels in culture supernatants” and the “spike protein expression at the cell surface” value [5] was “to a greater extent GSK treatment, reduced spike protein expression at the cell surface of infected cells”. The IMPα3 nuclear expression [6] was “no effect on IMPα3 nuclear expression”, the “co-localization of ACE2 and IMPα3 (PCC)” value [6] was “minimal effect” and the “SARS-CoV-2 spike protein expression” value [7] was “decreased SARS-CoV-2 spike protein expression”. For the same molecule, the “co-localization of ACE2 and SARS-CoV-2 spike protein” value [7] was “significantly reduced the co-localization of ACE2 and SARS-CoV-2 spike protein”, the “ACE2/spike interaction at cell surface (PLA)” value [8] was “significantly decreased interaction” and the “inhibition of LSD1 catalytic activity (compared with phenelzine)” value (LSD1) was “significantly more potent inhibitor of LSD1 catalytic activity than phenelzine”. For the same molecule, the cell viability (Caco-2 cells [9]; uninfected Caco-2, up to 72 h, n=3 (Fig. S2d)) was greater than 90%, the “LSD1, ACE2, and TMPRSS2 transcript” value [10] was “remained unaltered” and the “RIG1, MDA5, and ISG15 mRNA” value [10] was “remained unaltered”. For the same molecule, the “association between ACE2 and pan-methylation lysine antibody (PLA)” value [11] was “increased the association between ACE2 and pan-methylation lysine antibody in infected cells”, the “inhibition of viral RNA in infected cells (comparison)” value (SARS-CoV-2 [12]) was “greatest inhibition of viral RNA in infected cells” and the “viral load, % virus-aligned reads over total reads” value (SARS-CoV-2 [12]) was 1%.

In the case of `C/C(=N\NC(=O)c1cccc(S(=O)(=O)N2CCOCC2)c1)c1cc(Cl)ccc1O` [SP2509], the “ACE2 lysine 31 (ACE2me2 peptide) demethylation” value (human recombinant LSD1 [1]; LSD1 incubated with inhibitor 30 min at room temperature, LSD1 fluorimetric kit, 40 s intervals, one-way ANOVA P < 0.0001 (Fig. 2a)) is reported as “showed the highest inhibitory potency of all the LSD1 inhibitors in vitro”.

For `CN(C)C(=O)COC(=O)Cc1ccc(OC(=O)c2ccc(NC(=N)N)cc2)cc1` [camostat mesylate], the SARS-CoV-2-S-driven entry [13] is listed as “partially blocked SARS-CoV-2-S-driven entry into Caco-2 cells”.

For `CCN(CCO)CCCC(C)Nc1ccnc2cc(Cl)ccc12` (stereo not shown) [hydroxychloroquine], the “clinical outcome in COVID-19” value (COVID-19) is given as “lack of effect or even increased harm”.

For `NNCCc1ccccc1` [phenelzine], the “disruption of nuclear LSD1/CoREST complex” value [14] is given as “can disrupt the nuclear LSD1/CoREST complex”, the cell proliferation (Caco-2 cells [2]) is given as “neither altered cell proliferation” and the “DUSP1, DUSP6, DUPS8 expression” value [3] is given as “highly upregulated”. For the same molecule, the IRF7 gene expression [3] was “upregulation of IRF7 gene expression”, the “enriched Reactome pathways vs control” value [3] was “translation and MAPK pathways were enriched; also recorded: post-transcriptional protein phosphorylation and amino acid synthesis and interconversion (transamination) processes were significantly enriched; also recorded: regulates MAPK signaling-related pathways” and the “number of differentially expressed genes vs control” value [3] was 1059 DEGs. For the same molecule, the “viral RNA levels in culture supernatants” value (SARS-CoV-2 [4]) was “negligibly reduced viral RNA levels in culture supernatants”, the “spike protein expression at the cell surface” value [5] was “reduced spike protein expression at the cell surface of infected cells” and the IMPα3 nuclear expression [6] was “no effect on IMPα3 nuclear expression”. For the same molecule, the “co-localization of ACE2 and IMPα3 (PCC)” value [6] was “minimal effect”, the “SARS-CoV-2 spike protein expression” value [7] was “decreased SARS-CoV-2 spike protein expression” and the “co-localization of ACE2 and SARS-CoV-2 spike protein” value [7] was “significantly reduced the co-localization of ACE2 and SARS-CoV-2 spike protein”. For the same molecule, the T cell responses [15] was “epigenetically restore T cell responses in human breast cancer”, the cell viability (Caco-2 cells [9]) was greater than 90% and the “IFNβ and OASL expression” value [10] was “further increased”. The “LSD1, ACE2, and TMPRSS2 transcript” value [10] was “remained unaltered” and the “RIG1, MDA5, and ISG15 mRNA” value [10] was “remained unaltered”.

In the case of QAKTFLD[Lys(Me2)]FNHEAED [ACE2me2], the “Demethylation of peptide by LSD1 (substrate)” value (human recombinant LSD1 [16]; ACE2me2 peptide, lysine 31, fluorescence) is reported as “efficiently de-methylated”.

For “TGIRDRKKKNKARS-(FAM5) [FAM5-tagged NACE2i]”, the “nuclear ACE2 expression over time” value (ACE2, Caco-2 cells) was “significantly inhibited nuclear ACE2 expression after 8 h and up to 96 h” and the peptide stability (Caco-2 cells [17]) was “stable over time”.

In the case of TGIRDRKK[Lys(Me2)]NKARS [PEP3], the “Demethylation of NLS peptides by LSD1 (rank order)” value (from here on “Demethylation of NLS peptides”) (human recombinant LSD1 [16]) is reported as “followed by PEP3, PEP2, and PEP1”.

For TGIRDRK[Lys(Me2)]KNKARS [PEP2], the “Demethylation of NLS peptides” value (human recombinant LSD1 [16]) was “followed by PEP3, PEP2, and PEP1”.

With TGIRDR[Lys(Me2)]KKNKARS [PEP1] the “Demethylation of NLS peptides” value (human recombinant LSD1 [16]) was “followed by PEP3, PEP2, and PEP1”.

With TGIRDR[Lys(Me2)]K[Lys(Me2)]NKARS [PEP4] the “Demethylation of NLS peptides” value (human recombinant LSD1 [16]) was “greatest demethylation”.

In the case of ivermectin, the SARS-CoV-2 replication (SARS-CoV-2 [18]) is given as “inhibits SARS-CoV-2 replication”.

In the case of tocilizumab, the “clinical outcome in COVID-19” value (COVID-19) is listed as “mixed results in clinical studies”.

B1: sarilumab (antibody, chains of the INN, looked up, V domains shown)
VH: EVQLVESGGGLVQPGRSLRLSCAASRFTFDDYAMHWVRQAPGKGLEWVSGISWNSGRIGYADSVKGRFTISRDNAENSLFLQMNGLRAEDTALYYCAKGRDSFDIWGQGTMVTVSS
VL: DIQMTQSPSSVSASVGDRVTITCRASQGISSWLAWYQQKPGKAPKLLIYGASSLESGVPSRFSGSGSGTDFTLTISSLQPEDFASYYCQQANSFPYTFGQGTKLEIK
In the case of B1, the “clinical outcome in COVID-19” value (COVID-19) is listed as “mixed results in clinical studies”.

From article PMC8143069 (Cell Discovery, 2021)
